According to patent publication US9694016B2 (Novartis AG, priority 2013, dated 2017):

target: b-Raf (V600E) (Homo sapiens (Human), UniProt P15056, V600E); conditions: read-out: b-Raf IC-50; AlphaScreen, 60 min pre-incubation, 3 hours reaction
Sequence (P15056 whole entry V600E): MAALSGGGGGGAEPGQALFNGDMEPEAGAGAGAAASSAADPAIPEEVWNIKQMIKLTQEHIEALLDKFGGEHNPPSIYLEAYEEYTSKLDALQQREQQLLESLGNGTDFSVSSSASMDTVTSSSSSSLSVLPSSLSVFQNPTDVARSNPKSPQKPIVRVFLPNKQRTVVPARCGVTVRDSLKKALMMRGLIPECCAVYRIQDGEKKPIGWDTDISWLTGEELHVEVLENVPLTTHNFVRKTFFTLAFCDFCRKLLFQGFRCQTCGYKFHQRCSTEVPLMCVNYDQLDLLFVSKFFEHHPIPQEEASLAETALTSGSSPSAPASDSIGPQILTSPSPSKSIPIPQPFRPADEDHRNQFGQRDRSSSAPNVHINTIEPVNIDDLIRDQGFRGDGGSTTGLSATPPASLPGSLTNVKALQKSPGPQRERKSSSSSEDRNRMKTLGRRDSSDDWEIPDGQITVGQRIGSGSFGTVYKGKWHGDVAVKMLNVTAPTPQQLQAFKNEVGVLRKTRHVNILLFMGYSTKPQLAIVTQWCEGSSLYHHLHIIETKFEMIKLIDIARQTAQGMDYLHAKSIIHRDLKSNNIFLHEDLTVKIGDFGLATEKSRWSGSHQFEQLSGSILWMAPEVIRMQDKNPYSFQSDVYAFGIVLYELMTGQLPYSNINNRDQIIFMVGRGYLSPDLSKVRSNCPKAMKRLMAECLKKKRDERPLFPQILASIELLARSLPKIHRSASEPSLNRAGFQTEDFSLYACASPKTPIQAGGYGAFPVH

IC50 | Compound
2.2 nM | Cc1ccc(NC(=O)c2ccnc(C(C)(C)O)c2)cc1-c1cc(N2CCOCC2)c(OC2CCOCC2)nn1 [Example 581, 2-(2-hydroxypropan-2-yl)-N-(4-methyl-3-(5-morpholino-6-((tetrahydro-2H-pyran-4-yl)oxy)pyridazin-3-yl)phenyl)isonicotinamide]
11.3 nM | Cc1ncc(NC(=O)c2cccc(C(F)(F)F)c2)cc1-c1cc(N2CCOCC2)nc(N(C)C)n1 [Example 760, N-(5-(2-(dimethylamino)-6-morpholinopyrimidin-4-yl)-6-methylpyridin-3-yl)-3-(trifluoromethyl)benzamide]
17.3 nM | Cc1ncc(NC(=O)c2cccc(S(C)(=O)=O)c2)cc1-c1cc(N2CCOCC2)n(C)c(=O)c1 [Example 509, N-(1′,2-dimethyl-6′-morpholino-2′-oxo-1′,2′-dihydro-[3,4′-bipyridin]-5-yl)-3-(methylsulfonyl)benzamide]
0.7 nM | CCOc1nnc(-c2cc(NC(=O)c3ccnc(C4(C#N)CC4)c3)ccc2C)cc1N1CCOCC1 [Example 568, 2-(1-cyanocyclopropyl)-N-(3-(6-ethoxy-5-morpholinopyridazin-3-yl)-4-methylphenyl)isonicotinamide]
33.2 nM | Cc1ccc(C(=O)Nc2cccc(OC(F)(F)F)c2)cc1-c1cc(N2CCOCC2)c(=O)n(C)c1 [Example 441, 4-methyl-3-(1-methyl-5-morpholino-6-oxo-1,6-dihydropyridin-3-yl)-N-(3-(trifluoromethoxy)phenyl)benzamide]
0.6 nM | CCn1c(N2CCOCC2)cc(-c2cc(NC(=O)c3ccnc(C(C)(F)F)c3)ccc2C)cc1=O [Example 519, 2-(1,1-difluoroethyl)-N-(3-(1-ethyl-6-morpholino-2-oxo-1,2-dihydropyridin-4-yl)-4-methylphenyl)isonicotinamide]
0.7 nM | Cc1ccc(NC(=O)c2ccnc(C3(C#N)CC3)c2)cc1-c1cc(N2CCOCC2)n2nccc2n1 [Example 796, 2-(1-cyanocyclopropyl)-N-(4-methyl-3-(7-morpholinopyrazolo[1,5-a]pyrimidin-5-yl)phenyl)isonicotinamide]
2.4 nM | Cc1ccc(NC(=O)c2cnnc(C(C)(C)C#N)c2)cc1-c1cc(N2CCOCC2)n(C)c(=O)c1 [Example 489, 6-(2-cyanopropan-2-yl)-N-(4-methyl-3-(1-methyl-6-morpholino-2-oxo-1,2-dihydropyridin-4-yl)phenyl)pyridazine-4-carboxamide]
0.8 nM | Cc1ncc(NC(=O)c2cccc(C(F)F)c2)cc1-c1cc(N2CCOCC2)n2nccc2n1 [Example 804, 3-(difluoromethyl)-N-(6-methyl-5-(7-morpholinopyrazolo[1,5-a]pyrimidin-5-yl)pyridin-3-yl)benzamide]
5 nM | Cc1ccc(NC(=O)c2ccnc(C(C)(C)C#N)c2)cc1-c1cncc(N2CCOCC2)n1 [Example 531, 2-(2-cyanopropan-2-yl)-N-(4-methyl-3-(6-morpholinopyrazin-2-yl)phenyl)isonicotinamide]
1.2 nM | Cc1ncc(NC(=O)c2cc(C(F)(F)F)ccn2)cc1-c1cc(N2CCOCC2)c(OC2CCOCC2)nn1 [Example 629, N-(6-methyl-5-(5-morpholino-6-((tetrahydro-2H-pyran-4-yl)oxy)pyridazin-3-yl)pyridin-3-yl)-4-(trifluoromethyl)picolinamide]
2.7 nM | Cc1ncc(NC(=O)c2cnnc(C(F)(F)F)c2)cc1-c1cc(N2CCOCC2)c(OC2CCOCC2)nn1 [Example 631, N-(6-methyl-5-(5-morpholino-6-((tetrahydro-2H-pyran-4-yl)oxy)pyridazin-3-yl)pyridin-3-yl)-6-(trifluoromethyl)pyridazine-4-carboxamide]
2.7 nM | COc1nnc(-c2cc(NC(=O)c3ccnc(C(F)(F)F)c3)cnc2C)cc1N1CCOCC1 [Example 605, N-(5-(6-methoxy-5-morpholinopyridazin-3-yl)-6-methylpyridin-3-yl)-2-(trifluoromethyl)isonicotinamide]
6.7 nM | Cc1ccc(NC(=O)c2ccnc(C(C)(C)F)c2)cc1-c1cc(N2CCOC(C)(C)C2)c(=O)n(C)n1 [Example 665, N-(3-(5-(2,2-dimethylmorpholino)-1-methyl-6-oxo-1,6-dihydropyridazin-3-yl)-4-methylphenyl)-2-(2-fluoropropan-2-yl)isonicotinamide]
1.3 nM | CCOc1nnc(-c2cc(NC(=O)c3cc(C(F)(F)F)ccn3)cnc2C)cc1N1CCOCC1 [Example 611, N-(5-(6-ethoxy-5-morpholinopyridazin-3-yl)-6-methylpyridin-3-yl)-4-(trifluoromethyl)picolinamide]
5.8 nM | Cc1ncc(NC(=O)c2ccnc(C(C)C)c2)cc1-c1cc(N2CCOCC2)n(C)c(=O)c1 [Example 505, N-(1′,2-dimethyl-6′-morpholino-2′-oxo-1′,2′-dihydro-[3,4′-bipyridin]-5-yl)-2-isopropylisonicotinamide]
79 nM | Cc1ccc(C(=O)Nc2ccccc2)cc1-c1cc(N2CCOCC2)n(C)c(=O)c1 [Example 518, 4-methyl-3-(1-methyl-6-morpholino-2-oxo-1,2-dihydropyridin-4-yl)-N-phenylbenzamide]
3.6 nM | Cc1ncc(NC(=O)c2cccc(C(F)(F)F)c2)cc1-c1cc(N2CCOCC2)nc(N[C@@H](C)CO)n1 [Example 745, (S)—N-(5-(2-((1-hydroxypropan-2-yl)amino)-6-morpholinopyrimidin-4-yl)-6-methylpyridin-3-yl)-3-(trifluoromethyl)benzamide]
2.1 nM | CCC(F)(F)c1cc(C(=O)Nc2ccc(C)c(-c3cc(N4CCOCC4)c(OC)nn3)c2)ccn1 [Example 549, 2-(1,1-difluoropropyl)-N-(3-(6-methoxy-5-morpholinopyridazin-3-yl)-4-methylphenyl)isonicotinamide]

same assay, conditions: read-out: b-Raf IC-50; AlphaScreen, 60 min pre-incubation, reaction 3 hours at room temperature

IC50 | Compound
0.82 nM | Cc1ccc(NC(=O)c2cccc(C(F)F)c2)cc1-c1cc(N2CCOCC2)nc(N2CCOCC2)c1 [Example 1116, 3-(difluoromethyl)-N-(3-(2,6-dimorpholinopyridin-4-yl)-4-methylphenyl)benzamide]
3.37 nM | Cc1ccc(NC(=O)c2cnnc(C3(C#N)CC3)c2)cc1-c1cc(N2CCOCC2)c(=O)n(C)c1 [Example 902, 6-(1-cyanocyclopropyl)-N-(4-methyl-3-(1-methyl-5-morpholino-6-oxo-1,6-dihydropyridin-3-yl)phenyl)pyridazine-4-carboxamide]
2 nM | Cc1ccc(NC(=O)c2ccnc(C(C)(C)F)c2)cc1-c1cnc(OCCO)c(N2CCOCC2)c1 [Example 997, 2-(2-fluoropropan-2-yl)-N-(3-(6-(2-hydroxyethoxy)-5-morpholinopyridin-3-yl)-4-methylphenyl)isonicotinamide]
2.01 nM | Cc1ncc(NC(=O)c2cccc(C(F)(F)F)c2)cc1-c1cnc(O[C@@H](C)CO)c(N2CCOCC2)c1 [Example 985, (S)—N-(6′-((1-hydroxypropan-2-yl)oxy)-2-methyl-5′-morpholino-[3,3′-bipyridin]-5-yl)-3-(trifluoromethyl)benzamide]
1.31 nM | Cc1ncc(NC(=O)c2cc(C(F)(F)F)ccn2)cc1-c1cc(N2CCOCC2)c(OCC(F)F)nn1 [Example 916, N-(5-(6-(2,2-difluoroethoxy)-5-morpholinopyridazin-3-yl)-6-methylpyridin-3-yl)-4-(trifluoromethyl)picolinamide]
4.43 nM | Cc1ccc(NC(=O)c2cc(C(C)(C)F)ccn2)cc1-c1cc(N2CCOCC2)c(=O)n(C)c1 [Example 907, 4-(2-fluoropropan-2-yl)-N-(4-methyl-3-(1-methyl-5-morpholino-6-oxo-1,6-dihydropyridin-3-yl)phenyl)picolinamide]
7.3 nM | Cc1ncc(NC(=O)c2ccnc(C(C)(C)C#N)c2)cc1-c1cnc(OC(C)C)c(N2CCOCC2)c1 [Example 954, 2-(2-cyanopropan-2-yl)-N-(6′-isopropoxy-2-methyl-5′-morpholino-[3,3′-bipyridin]-5-yl)isonicotinamide]
4.11 nM | CCOc1ccc(-c2cc(NC(=O)c3ccnc(C(C)(F)F)c3)cnc2C)nc1N1CCOCC1 [Example 1028, 2-(1,1-difluoroethyl)-N-(5-ethoxy-2′-methyl-6-morpholino-[2,3′-bipyridin]-5′-yl)isonicotinamide]

same assay, conditions: read-out: b-Raf IC-50; Table 2; AlphaScreen, 3 hours reaction

IC50 | Compound
14.6 nM | Cc1ncc(NC(=O)c2ccnc(C(C)(C)C#N)c2)cc1-c1cnc(OCCO)c(N2CCOCC2)c1 [Example 300, 2-(2-cyanopropan-2-yl)-N-(6′-(2-hydroxyethoxy)-2-methyl-5′-morpholino-[3,3′-bipyridin]-5-yl)isonicotinamide]
32.3 nM | Cc1ncc(NC(=O)c2cnnc(C(C)(C)C#N)c2)cc1-c1cnc(Cl)c(N2CCOCC2)c1 [Example 293, N-(6′-chloro-2-methyl-5′-morpholino-[3,3′-bipyridin]-5-yl)-6-(2-cyanopropan-2-yl)pyridazine-4-carboxamide]
1.6 nM | Cc1ccc(NC(=O)c2cccc(OC(C)C)c2)cc1-c1cc(N2CCOCC2)c(=O)n(C)c1 [Example 345, 3-isopropoxy-N-(4-methyl-3-(1-methyl-5-morpholino-6-oxo-1,6-dihydropyridin-3-yl)phenyl)benzamide]
1.1 nM | Cc1ncc(NC(=O)c2ccnc(C(C)(F)F)c2)cc1-c1cnc(N(C)C)c(N2CCOCC2)c1 [Example 267]
6 nM | Cn1cc(-c2cc(C(=O)Nc3cccc(C(C)(C)C#N)c3)ccc2Cl)cc(N2CCOCC2)c1=O [Example 427, 4-chloro-N-(3-(2-cyanopropan-2-yl)phenyl)-3-(1-methyl-5-morpholino-6-oxo-1,6-dihydropyridin-3-yl)benzamide]
7.1 nM | Cc1ccc(C(=O)Nc2cccc(C(F)(F)F)c2)cc1-c1cc(N2CCOCC2)c(=O)n(C)c1 [Example 137, 4-methyl-3-(1-methyl-5-morpholino-6-oxo-1,6-dihydropyridin-3-yl)-N-(3-(trifluoromethyl)phenyl)benzamide]
2.4 nM | Cn1cc(-c2cc(C(=O)Nc3cccc(C(F)F)c3)ccc2Cl)cc(N2CCOCC2)c1=O [Example 426, 4-chloro-N-(3-(difluoromethyl)phenyl)-3-(1-methyl-5-morpholino-6-oxo-1,6-dihydropyridin-3-yl)benzamide]
